Measurements reported in patent publication US12240840B2, “Amide-substituted heterocyclic compounds for the treatment of conditions related to the modulation of IL-12, IL-23 and/or IFN-alpha” (BRISTOL-MYERS SQUIBB COMPANY, priority 2018, dated 2025).

What follows are compounds tested on IFNα-induced pSTAT5 (pY694) in CD3 positive cells of human whole blood (assay: IFNα-Induced STAT Phosphorylation in Human Whole Blood). Conditions: Homo sapiens, 1 h compound incubation, 1000 U/mL recombinant human IFNα A/D for 15 min, pSTAT5 in CD3 positive population, read-out: Human WB IFNα-Induced Stat Phosph. (IC50).
Format: cell-based
Summary of the method: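 Read-out is median fluorescence intensity of pSTAT5 (pY694) in the CD3-positive gate, by flow cytometry after fix/lyse and permeabilization. Before that, whole human blood anticoagulated with EDTA or ACD-A received compound for an hour and 1000 U/mL IFNα A/D for 15 min.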
[2H]C([2H])([2H])NC(=O)c1nnc(NC(=O)C2CC2)cc1Nc1cccc(-c2cc(C(=O)N3CCC(N4CCN(CCO)CC4)CC3)n(C)n2)c1OC [Example 524] showed an IC50 of 3400 nM. For [2H]C([2H])([2H])NC(=O)c1nnc(NC(=O)C2CC2)cc1Nc1cccc(-c2cc(C(=O)N3C[C@@H](C)O[C@@H](C)C3)n(C)n2)c1OC [Example 525], the IC50 was 240 nM. Work on [2H]C([2H])([2H])NC(=O)c1nnc(NC(=O)C2CC2)cc1Nc1cccc(-c2cc(C(=O)N(C)CCN(C)C)n(C)n2)c1OC [Example 526] yielded an IC50 of 520 nM. In the case of [2H]C([2H])([2H])NC(=O)c1nnc(NC(=O)C2CC2)cc1Nc1cccc(-c2cc(C(=O)NCCCOC)n(C)n2)c1OC [Example 527], the IC50 is reported as 950 nM. Compound [2H]C([2H])([2H])NC(=O)c1nnc(NC(=O)C2CC2)cc1Nc1cccc(-c2cc(C(=O)NCC3CCN(C)C3)n(C)n2)c1OC (centres unmarked) [Example 528] has an IC50 of 840 nM. In the case of [2H]C([2H])([2H])NC(=O)c1nnc(NC(=O)C2CC2)cc1Nc1cccc(-c2cc(C(=O)N3CCC(N(C)C)CC3)n(C)n2)c1OC [Example 529], the IC50 is reported as 200 nM. For [2H]C([2H])([2H])NC(=O)c1nnc(NC(=O)C2CC2)cc1Nc1cccc(-c2cc(C(=O)N3CCN(C(C)C)CC3)n(C)n2)c1OC [Example 531], the IC50 was 60 nM. In the case of [2H]C([2H])([2H])NC(=O)c1nnc(NC(=O)C2CC2)cc1Nc1cccc(-c2cc(C(=O)N3CNCC(=O)C3)n(C)n2)c1OC [Example 532], the IC50 is reported as 470 nM. [2H]C([2H])([2H])NC(=O)c1nnc(NC(=O)C2CC2)cc1Nc1cccc(-c2cc(C(=O)NCCC3CCCN3C)n(C)n2)c1OC (centres unmarked) [Example 533] was tested, and the IC50 was 530 nM. In the case of [2H]C([2H])([2H])NC(=O)c1nnc(NC(=O)C2CC2)cc1Nc1cccc(-c2cc(C(=O)NC3CCC(N(C)C)CC3)n(C)n2)c1OC (centres unmarked) [Example 534], the IC50 is reported as 470 nM. Compound [2H]C([2H])([2H])NC(=O)c1nnc(NC(=O)C2CC2)cc1Nc1cccc(-c2cc(C(=O)NC(C)C)n(C)n2)c1OC [Example 535] has an IC50 of 1500 nM. For [2H]C([2H])([2H])NC(=O)c1nnc(NC(=O)C2CC2)cc1Nc1cccc(-c2cc(C(=O)NCCN(C)C)n(C)n2)c1OC [Example 536], the IC50 was 650 nM. [2H]C([2H])([2H])NC(=O)c1nnc(NC(=O)C2CC2)cc1Nc1cccc(-c2cc(C(=O)NCCCN(C)C)n(C)n2)c1OC [Example 537] was tested, and the IC50 was 700 nM. Compound [2H]C([2H])([2H])NC(=O)c1nnc(NC(=O)C2CC2)cc1Nc1cccc(-c2cc(C(=O)N3CCC3)n(C)n2)c1OC [Example 538] has an IC50 of 390 nM. [2H]C([2H])([2H])NC(=O)c1nnc(NC(=O)C2CC2)cc1Nc1cccc(-c2cc(C(=O)N(C)CC)n(C)n2)c1OC [Example 539] was tested, and the IC50 was 120 nM. In the case of [2H]C([2H])([2H])NC(=O)c1nnc(NC(=O)C2CC2)cc1Nc1cccc(-c2cc(C(=O)NC(COC)COC)n(C)n2)c1OC [Example 540], the IC50 is reported as 460 nM. [2H]C([2H])([2H])NC(=O)c1nnc(NC(=O)C2CC2)cc1Nc1cccc(-c2cc(C(=O)N3CCC(CCN4CCCC4)CC3)n(C)n2)c1OC [Example 541] gave an IC50 of 1390 nM. [2H]C([2H])([2H])NC(=O)c1nnc(Nc2ccc(C)nn2)cc1Nc1cccc(-c2ccn(CCNC(=O)COC)n2)c1OC [Example 542] showed an IC50 of 890 nM. [2H]C([2H])([2H])NC(=O)c1nnc(Nc2ccc(OCC)nn2)cc1Nc1cc(F)cc(-c2cc(C(C)(C)O)n(C)n2)c1OC [Example 545] gave an IC50 of 220 nM. With [2H]C([2H])([2H])NC(=O)c1nnc(Nc2cc(C)n(C)n2)cc1Nc1cc(F)cc(-c2cc(C(C)(C)O)n(C)n2)c1OC [Example 546] the IC50 was 110 nM. [2H]C([2H])([2H])NC(=O)c1nnc(Nc2cc(C(C)(C)O)ccn2)cc1Nc1cc(F)cc(-c2cc(C(C)(C)O)n(C)n2)c1OC [Example 547] gave an IC50 of 400 nM. [2H]C([2H])([2H])NC(=O)c1nnc(Nc2cc(C)n(C)n2)cc1Nc1cc(F)cc(-c2cc(C(=O)N(C)C)n(C)n2)c1OC [Example 548] gave an IC50 of 170 nM. Compound [2H]C([2H])([2H])NC(=O)c1nnc(Nc2cc(C(C)(C)O)ccn2)cc1Nc1cc(F)cc(-c2cc(C(=O)N(C)C)n(C)n2)c1OC [Example 550] has an IC50 of 240 nM.
